Tests used:
[1] = GBM chemotherapy, historical data; cited from earlier work
[2] = Tolerability in A549 tumor-bearing Rag2 mice (body weight, CBC, clinical observations)
Description: (§1) Tumor growth was monitored by measuring tumor dimensions with calipers beginning on the first day of treatment. Tumor length and width measurements were obtained each Monday, Wednesday, and Friday. Tumor volumes were calculated according to the equation L×W^2/2 with the length (in mm) being defined as the longer axis of the tumor. Animals were weighed at the time of tumor measurement. Tumors were allowed to grow to a maximum of 800 mm^3 before termination.
All animals had blood collected by cardiac puncture at termination for CBC (complete blood count) with differentiation.
In particular, signs of ill-health were based on body weight loss, change in appetite, and behavioral signs such as altered gait, lethargy, and gross manifestations of stress. If signs of severe toxicity or tumor-related illness were seen, the animals were terminated by isoflurane overdose followed by CO2 asphyxiation, and a necropsy was performed to assess other signs of toxicity. The following organs were examined: liver, gall bladder, spleen, lung, kidney, heart, intestine, lymph nodes, and bladder. Any unusual findings were noted.

[3] = tested on: A549 human lung adenocarcinoma xenograft tumors; experiment: A549 NSCLC xenograft tumor growth in Rag2 mice; format: in vivo, female Rag2 mice
Description: The purpose of the study reported in this Example is to evaluate the activity of dianhydrogalactitol in in vivo models of drug-resistant NSCLC in comparison to other drugs, including cisplatin. Rag2 mice bearing subcutaneous human lung adenocarcinoma xenograft tumors of either TKI-resistant (H1975) or TKI-sensitive (A549) origin were treated.
Two human NSCLC cell lines, A549 (TKI-sensitive) and H1975 (TKI-resistant), were used as xenograft tumor models in female Rag2 mice. The mice were 6 to 8 weeks of age and weighed 18-23 grams. 10 mice were used per group.
Cisplatin was used in normal saline at a dose of 5 mg/kg. Administration was intravenous.
Dianhydrogalactitol was used in 0.9% sodium chloride for injection at 1.5 mg/kg to 6 mg/kg. Administration was intraperitoneal.
Treatment was initiated at a tumor volume of 100 mm^3 to 150 mm^3.
On day 0, tumor cells were implanted subcutaneously into mice in a volume of 50 μL in Matrigel™ using a 28-gauge needle; injection of the tumor cells was in the back of the mice. Mice were randomly assigned to groups based on tumor volume.
as §1

GBM = details: GBM; Eagan (1979), Stupp (2005); cited from earlier work
[4] = Mischler et al. 1979; cited from earlier work
[5] = cisplatin 5 mg/kg Q7D x 3 i.v. (group 2)

Cn1nnc2c(C(N)=O)ncn2c1=O [temozolomide, reference compound]
DLT [1]: Hematologic
Nadir [1]: 21 to 28 days
Recovery [1]: Within 14 days

N.N.[Cl][Pt][Cl] [cisplatin, reference compound]
body weight loss ([2]; cisplatin 5 mg/kg (group 2)): body weight loss was observed
tolerability of the dosage ([2]; cisplatin 5 mg/kg, 1 mouse unable to receive the last dose): may also be near the MTD
day on which a mean tumor volume of 400 mm^3 was reached [3, 5]: 66 days
number of animals remaining on study on day 70 [3, 5]: 6/10
tumor doubling time [3, 5]: 17
day on which a mean tumor volume of 200 mm^3 was observed ([3]; cisplatin 5 mg/kg Q7D x 3 i.v. (group 2), days post-inoculation): 49 days
tumor growth delay compared to untreated controls ([3]; cisplatin 5 mg/kg i.v. (positive control)): 4 days

O=NN(CCCl)C(=O)NCCCl [Carmustine, carmustine, reference compound]
Median O.S. (XRT + Chemo) (GBM): 40-50 weeks

O[C@H]([C@H](O)[C@@H](O)CBr)[C@H](O)CBr [dibromodulcitol]
absorption by the oral route [4]: rapid and fairly complete
